How the values were obtained:
Format in all cases: cell-based, human
MDA-MB-231 = test: Cleaved caspase-3 immunofluorescence in breast cancer cells; conditions: p53-mutant cell line, 10 μM, 3 days
Protocol: (§1) Human fetal lung fibroblasts (IMR-90) were cultured in Dulbecco's modified eagle medium (DMEM) supplemented with 10% FBS and penicillin/streptomycin. LL 29 (AnHa) cells were obtained from the ATCC and growth to confluence using the ATCC protocol, but were subcultured as described for IMR-90 before initiation of all experiments. Quiescence was induced by replacing culture media with media containing 0.2% FBS. MCF-7 and MDA-MB-231 breast cancer cells were cultured in RPMI supplemented with 10% FBS and penicillin/streptomycin. All cells were cultured at 3% O2, and used between 25 and 40 population doublings. All cells were mycoplasma free.
(§2) For EdU labeling, cells were cultured with EdU (10 μM) for 24 h, fixed in 4% buffered formalin for 10 min, washed in PBS, and permeabilized in 0.5% Triton X-100 for 30 min. Cells were treated as instructed by the manufacturer Life Technologies Cat #C10337). For immunofluorescence, cells were blocked in 10% normal goat serum for 30 min, washed, and incubated overnight in antibodies to Ki67 (Abcam) or cleaved caspase 3 (Cell Signaling). Cell were then washed, incubated in fluorescent secondary antibodies, and mounted using vectashield mounting medium with DAPI.

MCF7 = test: as above; conditions: p53-positive cell line, 10 μM, 3 days
Protocol: as §1, §2

PPARγ = PPARγ luciferase reporter in irradiated IMR-90 fibroblasts; conditions: senescent cells, 10 days
Text: Lentiviral NF-κB reporter constructs (SA Biosciences) and baculoviral PPAR gamma constructs (Signosis) were transduced into proliferating cells. Following treatment, luciferase was extracted using Passive Lysis Buffer (Promega) and analyzed using a commercially available kit (Promega) using a Perkin-Elmer Victor™ X3 luminometer.

IMR-90 fibroblasts = conditions: for number of cells following irradiation: 5 Gy IR, 10 days
Protocol: as §1
RNA was extracted from cells or tissues using commercially available kits (Isolate II—Bioline for cells; Direct-zol—Zymo for tissues) according to the manufacturer's instructions. cDNA synthesis was performed using a High Capacity cDNA Reverse Transcription Kit (Thermo Fisher) according to the manufacturer's instructions. Quantitative PCR was performed on a LightCycler 480 II (Roche) using primers and probes designed for the Universal Probe Library. Primers and probes used for human transcripts were ACTB: 5′-CCAACCGCGAGAAGATGA (SEQ ID NO:1), 5′-TCCATCACGATGCCAGTG (SEQ ID NO:2), Probe #64; TUBA: 5′-cttcgtctccgccatcag (SEQ ID NO:3), 5′-ttgccaatctggacacca (SEQ ID NO:4), Probe #58; ALOX5: 5′-[…] (SEQ ID NO:5), 5′-[…] (SEQ ID NO:6), Probe #64; ALOX5AP: 5′-ggtctgcggggctacttt (SEQ ID NO:7), 5′-[…] (SEQ ID NO:8), Probe #18; ALOX12: 5′-[…] (SEQ ID NO:9), 5′-agccaggtcgtcaggag (SEQ ID NO:10), Probe #32; ALOX15: 5′-[…] (SEQ ID NO:11), 5′-[…] (SEQ ID NO:12), Probe #76; ALOX15B: 5′-[…] (SEQ ID NO:13), 5′-actgggaggcgaagaagg (SEQ ID NO:14), Probe #51; AKR1C1: 5′-catgcctgtcctgggattt (SEQ ID NO:15), 5′-[…] (SEQ ID NO:16), Probe #49; AKR1C2: 5′-ctatgcgcctgcagaggt (SEQ ID NO:17), 5′-[…] (SEQ ID NO:18), Probe #31; AKR1C3: 5′-[…] (SEQ ID NO:19), 5′-[…] (SEQ ID NO:20), Probe #78; CYSLTR2: 5′-[…] (SEQ ID NO:21), 5′-[…] (SEQ ID NO:22), Probe #18; DPEP1: 5′-gacgtcctgaggctggtg (SEQ ID NO:23), 5′-[…] (SEQ ID NO:24), Probe #9 (SEQ ID NO:25), ELOVL2: 5′-[…] (SEQ ID NO:26), 5′-[…] (SEQ ID NO:27), Probe #53; ELOVL4: 5′-catttggcccatggattc (SEQ ID NO:28), 5′-[…] (SEQ ID NO:29), Probe #31; ELOVL5: 5′-cccttccatgcgtccata (SEQ ID NO:30), 5′-[…] (SEQ ID NO:31), Probe #31; EPHX2: 5′-ttctgctggacaccctgaa (SEQ ID NO:32), 5′-[…] (SEQ ID NO:33), Probe #45; GPX4: 5′-ttcccgtgtaaccagttcg (SEQ ID NO:34), 5′-[…] (SEQ ID NO:35), Probe #36; LTA4H: 5′-ctgctctcacggtccagtc (SEQ ID NO:36), 5′-[…] (SEQ ID NO:37), Probe #64; LTBR2: 5′-[…] (SEQ ID NO:38), 5′-[…] (SEQ ID NO:39), Probe #33; LTC4S: 5′-[…] (SEQ ID NO:40), 5′-[…] (SEQ ID NO:41), Probe #18; PTGDS: 5′-[…] (SEQ ID NO:42), 5′-[…] (SEQ ID NO:43), Probe #36; PTGES: 5′-agagatgcctgcccacag (SEQ ID NO:44), 5′-tggccaccacgtacatctt (SEQ ID NO:45), Probe #4; PTGES2: 5′-[…] (SEQ ID NO:46), 5′-[…] (SEQ ID NO:47), Probe #49; PTGES3 (SEQ ID NO:48), 5′-[…] (SEQ ID NO:49), 5′-[…] (SEQ ID NO:50), Probe #48; PTGIS: 5′-[…] (SEQ ID NO:51), 5′-[…] (SEQ ID NO:52), Probe #45; PTGR1: 5′-atgatggggcagcaagtg (SEQ ID NO:53), 5′-cccatcagaaatggagtgc (SEQ ID NO:54), Probe #64; PTGS1: 5′-[…] (SEQ ID NO:55), 5′-gtggtggtccatgttcctg (SEQ ID NO:56), Probe #81; PTGS2: 5′-gatccccagggctcaaac (SEQ ID NO:57), 5′-[…] (SEQ ID NO:58), Probe #61; TBXAS1: 5′-[…] (SEQ ID NO:59), 5′-tgcctcccgtgtgaatct (SEQ ID NO:60), Probe #73; AREG: 5′-[…] (SEQ ID NO:61), 5′-[…] (SEQ ID NO:62), Probe #73; CCL2: 5′-AGTCTCTGCCGCCCTTCT (SEQ ID NO:63), 5′-GTGACTGGGGCATTGATTG (SEQ ID NO:64), Probe #40; CCL27: 5′-[…] (SEQ ID NO:65), 5′-gctgggtggcagtaggaat (SEQ ID NO:66), Probe #18; CXCL1: 5′-[…] (SEQ ID NO:67), 5′-[…] (SEQ ID NO:68), Probe #52; HGF: 5′-[…] (SEQ ID NO:69), 5′-[…]

Compound	apoptosis (cleaved caspase-3) (MDA-MB-231)	apoptosis (cleaved caspase-3) (MCF7)	PPARγ activation reduced (PPARγ) [%]	number of cells following irradiation (IMR-90 fibroblasts)	cell number relative to DMSO-treated SEN(IR) cells (IMR-90 fibroblasts; SEN(IR) cells counted for IL-6 ELISA normalization)
CCCCC/C=C/C=C1/C(=O)C=C[C@@H]1C/C=C\CCCC(=O)O [15d-PGJ2]	induced apoptosis	did not	–	–	–
CS(=O)(=O)Nc1ccc([N+](=O)[O-])cc1OC1CCCCC1 [NS-398]	–	–	~50	significantly increased	increase in cell number
CC(c1cc2ccccc2s1)N(O)C(N)=O (stereo not drawn) [zileuton]	–	–	–	mildly increased	–

Reference: patent publication US20200371122A1, “BIOMARKER FOR SENESCENT CELLS” (Buck Institute for Research on Aging, priority 2017, published 2020)
